Experiments:
[1] = target: T1, fibrinogen binding to platelets (gpIIb/IIIa) (Homo sapiens, UniProt P05106+P08514); assay: Fibrinogen Binding Assay (125I-fibrinogen binding to ADP-activated platelets); conditions: ADP 10 μM, 125I-fibrinogen 0.3 μM, 40 min at 37° C., read-out: Human Fg binding IC50
T1 construct: endogenous in cells
Method: Fibrinogen binding was performed essentially as described by Plow et al., Blood 70, 110-115 (1987). Briefly, blood from humans who had not been given any antiplatelet drugs in the previous two weeks was collected into 1/10th volume of CCD buffer (100 mM sodium citrates, 136 mM glucose, pH 6.5). The blood was centrifuged for 3 min at 1000×g and platelet rich plasma was transferred to a plastic tube with a plastic pipet and placed on ice. After 15 minutes, 1/2 volume of ice cold CCD buffer was added and the sample was centrifuged at 900×g for 10 min at 2° C. The supernatant was decanted and the platelet pellet was gently resuspended in 1/2 the original volume of ice cold modified Tyrode's buffer (137 mM NaCl, 2.6 mM KCl, 12 mM NaHCO3, 5.5 mM glucose, 15 mM HEPES, 0.5% BSA, pH 7.4). After incubating for 30 minutes at 37° C., the platelet count was adjusted to 4×10^8 platelets/ml with modified Tyrode's buffer. To test samples (final concentration=1×10^8 platelets/ml) were added in sequence: ADP (10 μM), CaCl2 (2 mM), test compound, and ^125 I-fibrinogen (0.3 μM) to the aforesaid final concentrations in a volume of 200 μl. The samples were incubated for 40 min at 37° C. and 50 μl aliquots were centrifuged at 8,000×g through a 20% sucrose solution (400 μl). The tubes were quick frozen and the tips containing the platelet pellet were cut and assayed for bound ^125 I-fibrinogen by gamma scintillation counting. Specific binding was determined in each test by subtracting from the total binding the amount of ^125 I-fibrinogen bound in the presence of a 60-fold excess of unlabeled fibrinogen.

[2] = system: Platelet aggregation in dog PRP; assay: In-Vitro Platelet Aggregation in PRP (ADP induced); type: cell-based; conditions: Canis lupus familiaris; for IC50: ADP 50 μm, 37° C.; for inhibition at 10 µM: ADP, test concentration 1 × 10^-5
Method: In-Vitro Platelet Aggregation in PRP
(§1) Healthy male or female dogs were fasted for 8 hours prior to drawing blood; then 30 ml whole blood was collected using a butterfly needle and 30 cc plastic syringe with 3 ml of 0.129M buffered sodium citrate (3.8%). The syringe was rotated carefully as blood was drawn to mix the citrate. Platelet-rich plasma (PRP) was prepared by centrifugation at 975×g for 3.17 minutes at room temperature, allowing the centrifuge to coast to a stop without braking. The PRP was removed from the blood with a plastic pipette and placed in a plastic capped, 50 ml Corning conical sterile centrifuge tube which was held at room temperature. Platelet poor plasma (PPP) was prepared by centrifuging the remaining blood at 2000×g for 15 minutes at room temperature allowing the centrifuge to coast to a stop without braking. The PRP was adjusted with PPP to a count of 2-3×10^8 platelets per ml. 400 for 5-(p-cyanophenyl)pentanoic acid in Section C of Example 1.
as §1, with “400 μl of the PRP preparation and 50 μl of the compound to be tested or saline were preincubated” for “400”, “1 minute at 37° C.” for “5-(p-cyanophenyl)pentanoic acid”, “a BioData aggregometer (BioData, Horsham, Pa.). 50 μl” for “Section C”, “adenosine 5'diphosphate (ADP) (50 μm final concentration) was added to the cuvettes and the aggregation was monitored for 1 minute. All compounds are tested in duplicate. Results are calculated as follows:” for “Example 1.”
Percent of control=[(maximal OD minus initial OD of compound) divided by
(maximal OD minus initial OD of control saline)]×100. The %
inhibition=100-(percent of control).

[3] = system: ex vivo collagen induced platelet aggregation; assay: Inhibition of ex vivo collagen induced aggregation; type: in vivo, dog (Beagle); conditions: dog
Method: INHIBITION OF EX VIVO COLLAGEN INDUCED AGGREGATION BY COMPOUNDS OF THE INVENTION
PURPOSE--The purpose of this assay is to determine the effects of antiplatelet compounds on ex vivo collagen induced platelet aggregation when administered either intravenously or orally to dogs.
Pretreatment (control) blood samples are drawn from either conscious or anesthetized dogs (Beagles) and centrifuged to prepare platelet rich plasma (PRP). Aggregatory response to collagen is measured in an aggregometer and used as Control. Compounds are administered, either intragasterically (either by capsule or stomach tube or intravenously. Blood samples are drawn at predetermined intervals after compound administration, PRP prepared and aggregation to collagen determined. Compound inhibition of aggregation is determined by comparing the aggregation response after compound administration to the pretreatment response. The study is continued for a maximum of 24 hours or until the platelet aggregation returns to control levels. (If aggregation is still inhibited after 7 hours, a blood sample is drawn the following morning and tested.) Duration of activity is determined by the length of time platelet aggregation is inhibited after compound administration.

T1 sequence (P08514 32-887 limits assumed): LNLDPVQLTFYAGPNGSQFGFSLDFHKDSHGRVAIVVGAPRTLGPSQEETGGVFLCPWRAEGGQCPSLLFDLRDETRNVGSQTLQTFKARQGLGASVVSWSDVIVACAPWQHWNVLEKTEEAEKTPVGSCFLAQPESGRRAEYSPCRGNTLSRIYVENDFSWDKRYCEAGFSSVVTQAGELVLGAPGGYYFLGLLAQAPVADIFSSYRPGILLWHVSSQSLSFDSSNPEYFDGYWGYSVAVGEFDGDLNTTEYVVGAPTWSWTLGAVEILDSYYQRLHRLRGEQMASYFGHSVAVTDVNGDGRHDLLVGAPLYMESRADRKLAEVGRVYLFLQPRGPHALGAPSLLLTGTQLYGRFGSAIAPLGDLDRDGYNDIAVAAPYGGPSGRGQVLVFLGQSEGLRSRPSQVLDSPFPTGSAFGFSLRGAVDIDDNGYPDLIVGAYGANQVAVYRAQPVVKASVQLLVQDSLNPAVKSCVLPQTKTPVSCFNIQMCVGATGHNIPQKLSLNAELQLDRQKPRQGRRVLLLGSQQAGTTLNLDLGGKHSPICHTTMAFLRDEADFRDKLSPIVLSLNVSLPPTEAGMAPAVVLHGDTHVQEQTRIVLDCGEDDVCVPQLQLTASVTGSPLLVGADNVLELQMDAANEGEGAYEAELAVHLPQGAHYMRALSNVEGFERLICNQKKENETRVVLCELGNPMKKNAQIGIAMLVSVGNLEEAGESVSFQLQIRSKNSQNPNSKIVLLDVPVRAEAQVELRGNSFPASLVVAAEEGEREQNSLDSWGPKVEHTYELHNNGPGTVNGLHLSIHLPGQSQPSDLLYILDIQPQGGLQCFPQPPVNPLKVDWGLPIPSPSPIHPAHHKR
T1 sequence (P08514 891-1039 partner limits assumed): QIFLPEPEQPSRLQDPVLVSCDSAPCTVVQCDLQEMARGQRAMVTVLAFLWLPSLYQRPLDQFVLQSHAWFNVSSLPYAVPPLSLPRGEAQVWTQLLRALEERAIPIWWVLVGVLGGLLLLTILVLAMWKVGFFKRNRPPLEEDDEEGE
T1 sequence (P05106 27-788): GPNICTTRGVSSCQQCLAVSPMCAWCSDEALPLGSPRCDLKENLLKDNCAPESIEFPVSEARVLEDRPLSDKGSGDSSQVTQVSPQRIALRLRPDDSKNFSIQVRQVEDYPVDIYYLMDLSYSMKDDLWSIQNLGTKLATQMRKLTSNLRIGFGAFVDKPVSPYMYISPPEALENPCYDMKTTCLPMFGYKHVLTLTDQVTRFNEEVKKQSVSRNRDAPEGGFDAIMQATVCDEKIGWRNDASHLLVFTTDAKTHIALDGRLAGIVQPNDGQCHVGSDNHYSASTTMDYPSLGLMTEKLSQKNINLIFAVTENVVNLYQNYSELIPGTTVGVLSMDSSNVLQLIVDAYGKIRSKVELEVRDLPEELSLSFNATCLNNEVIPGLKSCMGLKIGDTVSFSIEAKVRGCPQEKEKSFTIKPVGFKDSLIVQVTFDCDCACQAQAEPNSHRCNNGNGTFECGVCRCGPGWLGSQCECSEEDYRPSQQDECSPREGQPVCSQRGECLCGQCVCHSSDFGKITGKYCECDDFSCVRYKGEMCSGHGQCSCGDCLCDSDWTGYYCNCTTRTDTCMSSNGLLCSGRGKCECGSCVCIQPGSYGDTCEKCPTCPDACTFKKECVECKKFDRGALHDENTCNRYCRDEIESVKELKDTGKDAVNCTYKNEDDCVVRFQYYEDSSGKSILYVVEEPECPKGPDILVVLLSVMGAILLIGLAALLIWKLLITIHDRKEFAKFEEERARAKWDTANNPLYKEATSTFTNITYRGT

Structure (SMILES)	IC50 [1]	IC50 [2]	inhibition at 10 µM [2]	Ex-vivo collagen induced aggregation, Max % Inhibition ([3]; 0.1 mg/kg, IV)	Ex-vivo collagen induced aggregation, Max % Inhibition ([3]; .025 mg/kg, IG)
N=C(N)c1ccc(CCCCC(=O)N[C@@H](CC(=O)O)C(=O)NCCc2ccccc2)cc1 [3 S-[[5-[4-(aminoiminomethyl)phenyl]-1-oxopentyl]amino]-4-oxo-4-[(2-phenylethyl)amino]butanoic acid]	200 nM	1900 nM	100%	–	–
COc1ccc(CCNC(=O)[C@H](CC(=O)O)NC(=O)CCCCc2ccc(C(=N)N)cc2)cc1 [3S [[5-[4-(aminoiminomethyl)phenyl]-1-oxopentyl]amino]-4-[[2-4-(methoxyphenyl)ethyl]amino]-4-oxobutanoic acid]	–	420 nM	100%	–	–
N=C(N)c1ccc(CCCCC(=O)N[C@@H](CC(=O)O)C(=O)N(CCC(=O)O)CCc2ccccc2)cc1 [3S-[[5-[4-(Aminoiminomethyl)phenyl]-1-oxopentyl]amino]-4-[(2-carboxyethyl)(2-phenylethyl)amino]-4-oxobutanoic acid]	–	10000 nM	53%	–	–
COc1ccc(CCN(CCC(=O)O)C(=O)[C@H](CC(=O)O)NC(=O)CCCCc2ccc(C(=N)N)cc2)cc1 [3S-[[5-[4-(aminoiminomethyl)phenyl]-1-oxopentyl)amino]-4-[(2-carboxyethyl)(2-(4-methoxyphenyl)ethyl]amino]-4-oxobutanoic acid]	–	–	66%	–	–
CC(C)CN(CCC(=O)O)C(=O)[C@H](CC(=O)O)NC(=O)CCCCc1ccc(C(=N)N)cc1 [3S-[[5-[4-(aminoiminomethyl)phenyl]-1-oxopentyl]amino]-4-[(2-carboxyethyl)(2-methylpropyl)amino]-4-oxobutanoic acid]	–	–	14%	–	–
N=C(N)c1ccc(CCCCC(=O)N[C@@H](CC(=O)O)C(=O)N(CCC(=O)O)Cc2ccccc2)cc1 [3S-[[5-[4-(aminoiminomethyl)phenyl]-1-oxopentyl]amino]-4-[(2-carboxyethyl)(phenylmethyl)amino]-4-oxobutanoic acid]	–	4300 nM	100%	–	–
CC(C)CNC(=O)[C@H](CC(=O)O)NC(=O)CCCCc1ccc(C(=N)N)cc1 [3S-[[5-[4-(aminoiminomethyl)phenyl]-1-oxopentyl]amino]-4-[(2-methylpropyl)amino]-4-oxobutanoic acid]	–	700 nM	100%	100%	–
N=C(N)c1ccc(CCCCC(=O)N[C@@H](CC(=O)O)C(=O)NCCc2c[nH]c3ccccc23)cc1 [3S-[[5-[4-(aminoiminomethyl)phenyl]-1-oxopentyl]amino]-4-[[2-(1H-indol-3-yl)ethyl]amino]-4-oxobutanoic acid]	–	280 nM	100%	–	–
N=C(N)c1ccc(/C=C/CCC(=O)N[C@@H](CC(=O)O)C(=O)N[C@@H](Cc2ccccc2)C(=O)O)cc1 [N-[5-[4-(aminoiminomethyl)phenyl]-1-oxo-4E-pentenyl]-N-L-α-aspartyl-L-phenylalanine]	7 nM	82 nM	100%	–	–
COC(=O)C[C@H](NC(=O)CCCCc1ccc(C(=N)N)cc1)C(=O)N[C@@H](Cc1ccccc1)C(=O)OC [N-[5-[4-(aminoiminomethyl)phenyl]-1-oxopentyl]-N-L-α-aspartyl-L-phenylalanine, dimethyl ester]	–	400 nM	100%	–	–
CC(C)[C@H](NC(=O)[C@H](CC(=O)O)NC(=O)CCCCc1ccc(C(=N)N)cc1)C(=O)O [N-[5-[4-(aminoiminomethyl)phenyl]-1-oxopentyl]-N-L-α-aspartyl-L-valine]	–	130 nM	100%	–	–
CN(CC(=O)N[C@@H](CC(=O)O)C(=O)N[C@@H](Cc1ccccc1)C(=O)O)C(=O)CCc1ccc(C(=N)N)cc1 [N-[N-[2-[[3-[4-(aminoiminomethyl)phenyl]-1-oxopropyl]methylamino] -1-oxoethyl]-L-α-aspartyl]-L-phenylalanine]	–	700 nM	100%	–	–
N=C(N)c1ccc2cc(OCC(=O)N[C@@H](CC(=O)O)C(=O)N[C@@H](Cc3ccccc3)C(=O)O)ccc2c1 [N-[N-[2-[[6-(aminoiminomethyl)-2-naphthalenyl]oxy]-1-oxoethyl]-L-α-aspartyl]-L-phenylalanine]	–	1100 nM	100%	–	–
N=C(N)c1ccc2cc(CCC(=O)N[C@@H](CC(=O)O)C(=O)N[C@@H](Cc3ccccc3)C(=O)O)ccc2c1 [N-[N-[3-[6-(aminoiminomethyl)-2-naphthalenyl]-1-oxopropyl]-L-α-aspartyl]-L-phenylalanine]	–	5500 nM	100%	–	–
N=C(N)c1ccc(CCCC(=O)N[C@@H](CC(=O)O)C(=O)N[C@@H](Cc2ccccc2)C(=O)O)cc1 [N-[N-[4-[4-(aminoiminomethyl)phenyl]-1-oxobutyl]-L-α-aspartyl]-L-phenylalanine]	–	–	4%	–	–
N=C(N)c1cccc(CCCCC(=O)N[C@@H](CC(=O)O)C(=O)N[C@@H](Cc2ccccc2)C(=O)O)c1 [N-[N-[5-[3-(aminoiminomethyl)phenyl-1-oxopentyl]-L-α-aspartyl]-L-phenylalanine]	–	–	25%	–	–
N=C(N)c1ccc(CC(=O)CCC(=O)N[C@@H](CC(=O)O)C(=O)N[C@@H](Cc2ccccc2)C(=O)O)cc1 [N-[N-[5-[4-(aminoiminomethyl)phenyl]-1,4-dioxopentyl]-L-α-aspartyl]-L-phenylalanine]	–	180 nM	100%	–	–
N=C(N)c1ccc(/C=C\CCC(=O)N[C@@H](CC(=O)O)C(=O)N[C@@H](Cc2ccccc2)C(=O)O)cc1 [N-[N-[5-[4-(aminoiminomethyl)phenyl]-1-oxo-4Z-pentenyl]-L-α-aspartyl]-L-phenylalanine]	–	600 nM	100%	–	–
CCOC(=O)C[C@H](NC(=O)CCCCc1ccc(C(=N)N)cc1)C(=O)N[C@@H](Cc1ccccc1)C(=O)OCC [N-[N-[5-[4-(aminoiminomethyl)phenyl]-1-oxopentyl]-L-α-aspartyl]-L-phenylalanine, diethyl ester]	–	–	–	–	39%
CN(C(=O)[C@H](CC(=O)O)NC(=O)CCCCc1ccc(C(=N)N)cc1)[C@@H](Cc1ccccc1)C(=O)O [N-[N-[5-[4-(aminoiminomethyl)phenyl]-1-oxopentyl]-L-α-aspartyl]-N-methyl-L-phenylalanine]	–	1500 nM	100%	–	–
N=C(N)c1ccc(CC(O)CCC(=O)N[C@@H](CC(=O)O)C(=O)N[C@@H](Cc2ccccc2)C(=O)O)cc1 (stereo partly drawn) [N-[N-[5-[4-(aminoiminomethyl)phenyl]-4-hydroxy-1-oxopentyl]-L-α-aspartyl]-L-phenylalanine]	–	–	15%	–	–
